The values below come from paper PMC8772941 (Biomedicines, 2021).

For assay [1], the system named is WT D2R. Details: method as in PMID 29325769. To be noted: log values from pERK assay; cited from earlier work.
For the next assay, the system named is D2R V91A. Also noted: method as in PMID 29325769. To be noted: log values from pERK assay; cited from earlier work.
The subject of the next assay is D2R L94A. Details: method as in PMID 29325769. The following applies: log values from pERK assay; cited from earlier work.
A further assay has as its system D2R E95A. Details: method as in PMID 29325769. To be noted: log values from pERK assay; cited from earlier work.
For a further assay, the system named is D2R S194A. Details: method as in PMID 29325769. To be noted: log values from pERK assay; cited from earlier work.
The test system of assay [2] is WT D2R. Details: method as in PMID 29325769. The following applies: log value from radioligand binding; cited from earlier work.
The next assay has as its system D2R S193A. Details: method as in PMID 29325769. To be noted: log value from radioligand binding; cited from earlier work.
A further assay has as its system D2R. The following applies: in the presence of µM concentrations of DA; pre-incubation protocols; cited from earlier work.
The next assay has as its target T1, GIRK1/4 (Homo sapiens, UniProt P48544+P48549).
T1 sequence (P48549 1-501): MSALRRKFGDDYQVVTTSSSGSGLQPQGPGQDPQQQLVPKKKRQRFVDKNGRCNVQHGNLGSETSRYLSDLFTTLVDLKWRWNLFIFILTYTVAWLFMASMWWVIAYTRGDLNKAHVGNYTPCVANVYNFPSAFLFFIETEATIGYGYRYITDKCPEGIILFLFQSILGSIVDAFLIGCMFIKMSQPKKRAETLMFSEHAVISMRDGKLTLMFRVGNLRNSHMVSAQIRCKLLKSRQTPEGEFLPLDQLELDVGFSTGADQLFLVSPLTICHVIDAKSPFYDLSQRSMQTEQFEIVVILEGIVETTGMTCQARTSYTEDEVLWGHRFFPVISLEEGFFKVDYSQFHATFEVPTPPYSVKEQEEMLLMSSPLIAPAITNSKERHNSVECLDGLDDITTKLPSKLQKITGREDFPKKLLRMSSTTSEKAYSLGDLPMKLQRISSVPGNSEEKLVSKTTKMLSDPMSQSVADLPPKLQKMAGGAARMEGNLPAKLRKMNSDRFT
T1 sequence (P48544 1-419): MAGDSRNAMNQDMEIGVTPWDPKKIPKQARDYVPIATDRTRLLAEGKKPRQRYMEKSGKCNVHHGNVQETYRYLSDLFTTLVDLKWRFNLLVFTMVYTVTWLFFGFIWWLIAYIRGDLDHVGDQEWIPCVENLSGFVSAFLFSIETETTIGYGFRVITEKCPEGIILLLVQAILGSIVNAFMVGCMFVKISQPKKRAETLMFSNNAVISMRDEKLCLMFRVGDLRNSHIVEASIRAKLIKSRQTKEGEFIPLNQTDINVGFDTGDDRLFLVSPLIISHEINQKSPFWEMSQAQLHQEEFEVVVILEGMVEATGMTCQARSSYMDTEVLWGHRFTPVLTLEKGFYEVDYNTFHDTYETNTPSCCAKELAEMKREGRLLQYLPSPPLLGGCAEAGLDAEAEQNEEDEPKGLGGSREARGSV
Nature of the assay: Control: direct inhibition of GIRK currents in oocytes expressing GIRK1/4 in the absence of the D2R.

Where two headings read alike, the source gives them in different places. Marks after values point to notes of the source that are not given here.

Method for GIRK1/4: Plasmids were linearized using the appropriate restriction enzymes (D2R, RGS4; XhoI and GIRK1/GIRK4; NotI), followed by in vitro transcription using the T7 mMessage mMachine kit (Ambion, Austin, TX, USA). cRNA concentration and purity were determined by spectrophotometry.
Following RNA injection and 6 days of incubation at 12 °C, electrophysiological experiments were performed on the oocytes using the parallel eight-channel, semi-automated, two-electrode voltage-clamp OpusXpress 6000A (Molecular Devices, San José, CA) [13, 14]. Continuous perfusion, mediated by Minipuls 3 peristaltic pumps (Gilson, Middleton, WI, USA), was maintained at 0.5 mL/min. Data were acquired at a membrane potential of −80 mV and sampled at 156 Hz using OpusXpress 1.10.42 (Molecular Devices) software. To increase the inward-rectifier potassium channel current at negative potentials, a high potassium concentration extracellular perfusion fluid was used (64 mM NaCl, 25 mM KCl, 0.8 mM MgCl2, 0.4 mM CaCl2, 15 mM HEPES, 1 mM ascorbic acid, adjusted to pH 7.4 with NaOH), yielding a K^+ reversal potential of about −40 mV.

Regarding `N#Cc1ccc2c(c1)CN(CC[C@H]1CC[C@H](NC(=O)c3cc4ccccc4[nH]3)CC1)CC2` [SB269,652, N-((trans)-4-(2-(7-cyano-3,4-dihydroisoquinolin-2(1H)-yl)ethyl)cyclohexyl)-1H-indole-2-carboxamide], the “Negative Cooperativity of SB269,652 Interaction with DA” value with WT D2R [1] is 1.23 ± 0.14; with D2R V91A it was “↓ 0.48 ± 0.16”; with D2R L94A, “↓ 0.70 ± 0.08”; in the assay on D2R E95A, “↓ 0.32 ± 0.14”; with D2R S194A it was “↓ 0.52 ± 0.09”; in the assay with WT D2R [2], 0.54 ± 0.11. Further, in the assay on D2R S193A, the “Negative Cooperativity of SB269,652 Interaction with DA” value is “↑ (1.47 ± 0.15 *) ^b”. Moreover, the “SB269,652 IC50 at the D2R in previous reports” value in the assay with D2R is on record as “high nM range”. Besides, the “Ligand-mediated direct inhibition of GIRK currents (>10%)” value at GIRK1/4 is reported as “not observed”.
